The values that follow come from patent EP1477169A1, “Reactions of polymorphs of N-methyl-N-(3-(3-(2-thienylcarbonyl)-pyrazol-(1,5-alpha)-pyrimidin-7-yl)phenyl)acetamide” (Neurocrine Biosciences, Inc., priority 1999, dated 2001).

≈ marks a conversion by molar mass, not a printed value.

Series [1] is described as follows: Physical (polymorphic) stability of the solid form. Type of series: physicochemical. The conditions noted are these: in words, compared with the polymorphic mixture of Compound 1; stability toward conversion to a different polymorphic form. The text has this: The polymorph Form I is considered a heat stable form of Compound 1. By "heat stable" or ''physically stable" is meant that the Form I is stable toward conversion to the polymorph Form II; although, it may be labile toward degradation to other compounds.
As the higher melting point polymorph, Form I has significant advantages over the polymorphic mixture of Compound 1 prepared according to known techniques. […] This, in turn, enhances the milling and compaction properties of the drug substance.

Series [2] is described as follows: Approximate solubility in various solvents. Type of series: physicochemical. The conditions noted are these: for Solubility: approximate. The text has this: In addition, the lower melting point polymorph, Form II, also has significant advantages over the polymorphic mixture of Compound 1 as prepared according to known techniques. […] Form II is generally more soluble in polar and protic solvents than is Form I. Enhanced solubility of a compound will generally increase the bioavailability of that compound. When absorption of a drug is dissolution rate limited, use of the more soluble and faster dissolving form improves the rate and extent of bioavailability.

For the compound `CC(=O)N(C)c1cccc(-c2ccnc3c(C(=O)c4cccs4)cnn23)c1` [Form I, N-methyl-N-(3-{3-[2-thienylcarbonyl]-pyrazol-[1,5-α]-pyrimidin-7-yl}phenyl)acetamide], in series [1], the physical stability result is “superior physical stability”. Moreover, the Solubility came to 4842 µg/mL (≈ 12.9 mM) in series [2] (Acetone); 6246 µg/mL (≈ 16.6 mM) in series [2] (Acetonitrile); 8.3 µg/mL (≈ 0.022 mM) in series [2] (De-ionized water); 80 µg/mL (≈ 0.213 mM) in series [2] (Diethyl ether); 1426 µg/mL (≈ 3.79 mM) in series [2] (Ethanol, absolute (100%)); 1600 µg/mL (≈ 4.25 mM) in series [2] (Ethyl acetate). Further, the Solubility in series [2] (Hexane) was 41 µg/mL (≈ 0.109 mM); in series [2] (Isopropanol), 441 µg/mL (≈ 1.17 mM); in series [2] (Methanol) it was 1740 µg/mL (≈ 4.62 mM); in series [2] (Polyethylene Glycol 400, NF), 3259 µg/mL (≈ 8.66 mM); in series [2] (Tetrahydrofuran) it was 9964 µg/mL (≈ 26.5 mM); in series [2] (Toluene) it was 997 µg/mL (≈ 2.65 mM).

Regarding `CC(=O)N(C)c1cccc(-c2ccnc3c(C(=O)c4cccs4)cnn23)c1` [Form II, N-methyl-N-(3-{3-[2-thienylcarbonyl]-pyrazol-[1,5-α]-pyrimidin-7-yl}phenyl)acetamide], the Solubility is 6873 µg/mL (≈ 18.3 mM) in series [2] (Acetone); 8928 µg/mL (≈ 23.7 mM) in series [2] (Acetonitrile); 18.8 µg/mL (≈ 0.0499 mM) in series [2] (De-ionized water); 51 µg/mL (≈ 0.135 mM) in series [2] (Diethyl ether); 1722 µg/mL (≈ 4.57 mM) in series [2] (Ethanol, absolute (100%)); 2160 µg/mL (≈ 5.74 mM) in series [2] (Ethyl acetate). Also, the Solubility in series [2] (Hexane) is 50 µg/mL (≈ 0.133 mM); in series [2] (Isopropanol), 457 µg/mL (≈ 1.21 mM); in series [2] (Methanol), 1915 µg/mL (≈ 5.09 mM); in series [2] (Polyethylene Glycol 400, NF), 10100 µg/mL (≈ 26.8 mM); in series [2] (Tetrahydrofuran), 14740 µg/mL (≈ 39.2 mM); in series [2] (Toluene), 645 µg/mL (≈ 1.71 mM). Also, the “solubility in a range of organic solvents” value in series [2] (in words, compared with Form I) is listed as “generally greater solubility in a range of organic solvents as compared to Form I”. In addition, the water solubility result in series [2] (in words, compared with Form I) is given as “superior water solubility over Form I”.

The term Solubility denotes how much of the substance goes into solution per volume. Low readings indicate a poorly soluble substance, high ones a readily soluble substance.
